Laboratory results published in patent US20090233928A1, “IMIDAZOLO-5-YL-2-ANILO-PYRIMIDINES AS AGENTS FOR THE INHIBITION OF CELL PROLIFERATION” (priority 2005, published 2009).

Molecular target: T1, CDK2/Cyclin E (Homo sapiens, UniProt P24941)
T1 construct: The open reading frames of CDK2 and Cyclin E were isolated; made in house; host or cells: Sf21 (Spodoptera frugiperda) insect cells, baculovirus co-infection; the GST-Rb substrate was made in E. coli BL21 (DE3) pLysS
Assay: in vitro kinase assay (Scintillation Proximity Assay), CDK2/Cyclin E, GST-Rb substrate
Type: biochemical
Conditions: in-vitro SPA kinase assay, read-out: CDK2 inhibitory activity IC50
Protocol: The compounds were tested in an in vitro kinase assay in 96 well format using Scintillation Proximity Assay (SPA—obtained from Amersham) for measuring incorporation of [γ-33-P]-Adenosine Triphosphate into a test substrate (GST-Retinoblastoma protein; GST-Rb). In each well was placed the compound to be tested (diluted in DMSO and water to correct concentrations) and in control wells either roscovitine as an inhibitor control or DMSO as a positive control. […]
The plates were sealed with Topseal-S plate sealers, left for two hours then spun at 2500 rpm, 1124×g., for 5 minutes. The plates were read on a Topcount for 30 seconds per well. […]
E. coli paste was resuspended in 10 ml/g of NETN buffer (50 mM Tris pH 7.5, 120 mM NaCl, 1 mM EDTA, 0.5% v/v NP-40, 1 mM PMSF, 1 ug/ml leupeptin, 1 ug/ml aprotinin and 1 ug/ml pepstatin) and sonicated for 2×45 seconds per 100 ml homogenate. […] The final product was analysed by Sodium Dodeca Sulfate (SDS) PAGE (Polyacrylamide gel) using 8-16% Tris-Glycine gels (Novex, San Diego, USA).
The open reading frames of CDK2 and Cyclin E were isolated by reverse transcriptase-PCR using HeLa cell and activated T cell mRNA as a template and cloned into the insect expression vector pVL1393 (obtained from Invitrogen 1995 catalogue number: V1392-20). […]

IC50: 49 nM
Structure (SMILES): Cc1ncc(-c2ccnc(Nc3ccc(N4CCOCC4)nc3)n2)n1C(C)C [Example 22, 4-(1-Isopropyl-2-methyl-1H-imidazol-5-yl)-N-(6-morpholin-4-ylpyridin-3-yl)pyrimidin-2-amine]
